One data set has as its system HEL. The experiment in a line: Viacount viability assay by flow cytometry. As to conditions: 6 h pulse, up to 2 μM, assessed at 48 h. In kind it is cell-based, human. The protocol:
(§1) AML cells were seeded at 5 x 10^5 cells/ml in a 6-well plate and incubated with the test compound or vehicle control (DMSO) for 6, 8 or 10 h. At the end of the incubation period, cells were collected into Falcon tubes, pelleted via centrifugation (5 min at 478 x g), and medium containing compound was aspirated. The cells were resuspended in 4 ml of fresh compound-free medium and returned to the 6-well plates for further incubation. Following compound addition, 100 μl (at 24 h), 75 μl (at 48 h), 50 μl (at 72 h) or 30 μl (at 96 h) of a homogeneous suspension of cells were removed from the culture, made up to 100 μl with medium and mixed with 100 μl Guava Viacount reagent (Millipore, Nottingham, UK) in a 96-well plate. Samples were incubated for 20 min in the dark, mixed and then analyzed by GuavaSoft 2.6 software on the Guava Easycyte 8HT (Millipore). Guava Viacount software was used to gate and calculate the proportion of viable and dead cells in the population.

Another data set has as its system KG-1. The experiment in a line: Viacount viability assay by flow cytometry. It counts as cell-based, human. Particulars: 6 h pulse, up to 2 μM, assessed at 48 h. The protocol: as §1
In another data set the test system is Kasumi-1 cells. The data set can be described thus: Viacount viability assay by flow cytometry. It counts as cell-based, human. Particulars: 6 h pulse, 0.5 or 1.0 μM, assessed at 24 h. The protocol: as §1
The target of another data set is T1, AKT3 (Homo sapiens, UniProt Q9Y243).
T1 construct: purchased Carna Biosciences
The experiment in a line: Carna kinase panel screen. In kind it is biochemical. As to conditions: read-out: % Inhibition ± SD. An outline of the steps:
(§2)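 Ten-point dose-response, ATP ≈ Km. % inhibition vs concentration → 4-parameter logistic fit → IC50.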

The target in the next data set is T2, HIPK2 (Homo sapiens, UniProt Q9H2X6).
T2 construct: purchased Carna Biosciences
The data set can be described thus: Carna kinase panel screen. It counts as biochemical. As to conditions: read-out: % Inhibition ± SD. An outline of the steps: as §2

A further data set concerns the target T3, PBK (Homo sapiens, UniProt Q96KB5).
T3 construct: purchased Carna Biosciences
The experiment in a line: Carna kinase panel screen. It counts as biochemical. As to conditions: read-out: % Inhibition ± SD. An outline of the steps: as §2

The target of a further data set is T4, NDR1 (Homo sapiens, UniProt Q15208).
T4 construct: purchased Carna Biosciences
The data set can be described thus: Carna kinase panel screen. In kind it is biochemical. As to conditions: read-out: % Inhibition ± SD. The procedure, abridged:
as §2

The target in a further data set is T5, CDK6 (Homo sapiens, UniProt Q00534).
T5 construct: purchased Carna Biosciences
The data set can be described thus: Carna kinase panel screen. In kind it is biochemical. Particulars: read-out: % Inhibition ± SD. The procedure, abridged:
(§3)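 10-pt curves; [ATP] ~Km; IC50 by 4PL fit of % inhibition.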

For a further data set, the target named is T6, PKR (Homo sapiens, UniProt P19525).
T6 construct: purchased Carna Biosciences
The experiment in a line: Carna kinase panel screen. Particulars: read-out: % Inhibition ± SD. In kind it is biochemical. The procedure, abridged: (§4)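 With ATP concentrations near the respective Km, a 10-point titration of each compound was run. Percent inhibition values were fitted (four-parameter logistic) to determine IC50.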

For another data set, the target named is T7, MARK1 (Homo sapiens, UniProt Q9P0L2).
T7 construct: purchased Carna Biosciences
The experiment in a line: Carna kinase panel screen. Particulars: read-out: % Inhibition ± SD. It counts as biochemical. The procedure, abridged:
as §2

The target of another data set is T8, CDC7 (Homo sapiens, UniProt O00311).
T8 construct: purchased Carna Biosciences
The data set can be described thus: Carna kinase panel screen. It counts as biochemical. Particulars: read-out: % Inhibition ± SD. An outline of the steps:
as §2

A further data set has as its target T9, PDGFRa[T674I] (Homo sapiens, UniProt P16234, T674I).
T9 construct: purchased Carna Biosciences
The data set can be described thus: Carna kinase panel screen. As to conditions: read-out: % Inhibition ± SD. It counts as biochemical. An outline of the steps: as §4

The target in the next data set is T10, DYRK3 (Homo sapiens, UniProt O43781).
T10 construct: purchased Carna Biosciences
The experiment in a line: Carna kinase panel screen. In kind it is biochemical. As to conditions: read-out: % Inhibition ± SD. The procedure, abridged:
as §3

In another data set the target is T11, IRAK1 (Homo sapiens, UniProt P51617).
T11 construct: purchased Carna Biosciences
The experiment in a line: Carna kinase panel screen. Particulars: read-out: % Inhibition ± SD. It counts as biochemical. The procedure, abridged:
as §2

The target of the next data set is T12, PKD1 (Homo sapiens, UniProt Q15139).
T12 construct: purchased Carna Biosciences
The data set can be described thus: Carna kinase panel screen. In kind it is biochemical. Particulars: read-out: % Inhibition ± SD. An outline of the steps:
as §4

In another data set the test system is panel of 256 kinases. The data set can be described thus: Carna 256-kinase selectivity panel, overall. It counts as biochemical. As to conditions: 1 μM. The protocol:
IC50 values were determined from a 10-point concentration curve using ATP concentrations approximating Km values. […] The percentage inhibition of each test solution was calculated, which allowed the IC50 value to be determined from concentration versus percentage inhibition curves by fitting to a four parameter logistic curve.

T10 sequence (O43781 whole entry): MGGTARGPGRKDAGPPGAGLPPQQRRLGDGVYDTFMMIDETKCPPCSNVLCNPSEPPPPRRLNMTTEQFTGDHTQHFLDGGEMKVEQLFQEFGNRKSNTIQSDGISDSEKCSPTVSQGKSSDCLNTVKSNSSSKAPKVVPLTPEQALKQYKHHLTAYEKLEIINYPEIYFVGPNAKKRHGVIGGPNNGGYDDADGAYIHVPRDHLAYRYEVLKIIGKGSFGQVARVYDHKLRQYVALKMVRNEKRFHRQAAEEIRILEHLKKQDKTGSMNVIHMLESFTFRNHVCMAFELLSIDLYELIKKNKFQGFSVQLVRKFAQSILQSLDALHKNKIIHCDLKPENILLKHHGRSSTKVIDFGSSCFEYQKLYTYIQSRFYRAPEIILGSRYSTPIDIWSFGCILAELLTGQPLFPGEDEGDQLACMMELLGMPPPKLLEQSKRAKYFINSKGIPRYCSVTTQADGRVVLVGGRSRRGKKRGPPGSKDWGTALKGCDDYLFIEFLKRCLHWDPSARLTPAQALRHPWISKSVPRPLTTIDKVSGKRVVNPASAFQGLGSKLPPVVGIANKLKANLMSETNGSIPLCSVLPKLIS
T1 sequence (Q9Y243 whole entry): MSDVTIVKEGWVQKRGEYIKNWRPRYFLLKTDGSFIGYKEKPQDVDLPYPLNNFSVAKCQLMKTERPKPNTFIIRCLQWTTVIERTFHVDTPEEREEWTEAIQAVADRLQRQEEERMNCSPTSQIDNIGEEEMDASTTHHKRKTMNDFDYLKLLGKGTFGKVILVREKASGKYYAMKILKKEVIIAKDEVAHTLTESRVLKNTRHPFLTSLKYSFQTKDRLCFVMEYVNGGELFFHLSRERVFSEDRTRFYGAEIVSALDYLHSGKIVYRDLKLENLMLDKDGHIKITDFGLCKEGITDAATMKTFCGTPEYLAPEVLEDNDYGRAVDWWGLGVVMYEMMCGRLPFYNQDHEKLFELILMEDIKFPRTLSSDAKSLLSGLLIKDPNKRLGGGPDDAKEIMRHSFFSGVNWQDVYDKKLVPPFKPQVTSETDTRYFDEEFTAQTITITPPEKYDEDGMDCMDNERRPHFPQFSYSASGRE
T11 sequence (P51617 whole entry): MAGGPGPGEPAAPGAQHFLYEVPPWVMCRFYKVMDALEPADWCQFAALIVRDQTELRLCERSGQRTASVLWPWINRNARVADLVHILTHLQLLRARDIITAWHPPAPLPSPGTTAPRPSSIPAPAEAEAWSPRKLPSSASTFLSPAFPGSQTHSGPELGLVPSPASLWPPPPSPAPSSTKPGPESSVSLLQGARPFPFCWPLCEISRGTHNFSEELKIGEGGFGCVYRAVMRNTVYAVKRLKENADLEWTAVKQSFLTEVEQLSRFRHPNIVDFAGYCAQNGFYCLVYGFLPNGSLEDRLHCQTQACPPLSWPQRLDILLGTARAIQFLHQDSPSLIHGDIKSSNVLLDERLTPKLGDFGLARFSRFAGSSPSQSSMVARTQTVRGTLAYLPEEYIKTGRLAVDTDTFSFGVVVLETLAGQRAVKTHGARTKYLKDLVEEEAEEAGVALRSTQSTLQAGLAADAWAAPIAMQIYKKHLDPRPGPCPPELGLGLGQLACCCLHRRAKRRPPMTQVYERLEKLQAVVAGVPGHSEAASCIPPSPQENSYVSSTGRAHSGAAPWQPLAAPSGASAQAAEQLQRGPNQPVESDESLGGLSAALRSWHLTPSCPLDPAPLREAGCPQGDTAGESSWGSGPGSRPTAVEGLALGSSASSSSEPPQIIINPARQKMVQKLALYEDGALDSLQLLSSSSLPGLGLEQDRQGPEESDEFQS
T4 sequence (Q15208 whole entry): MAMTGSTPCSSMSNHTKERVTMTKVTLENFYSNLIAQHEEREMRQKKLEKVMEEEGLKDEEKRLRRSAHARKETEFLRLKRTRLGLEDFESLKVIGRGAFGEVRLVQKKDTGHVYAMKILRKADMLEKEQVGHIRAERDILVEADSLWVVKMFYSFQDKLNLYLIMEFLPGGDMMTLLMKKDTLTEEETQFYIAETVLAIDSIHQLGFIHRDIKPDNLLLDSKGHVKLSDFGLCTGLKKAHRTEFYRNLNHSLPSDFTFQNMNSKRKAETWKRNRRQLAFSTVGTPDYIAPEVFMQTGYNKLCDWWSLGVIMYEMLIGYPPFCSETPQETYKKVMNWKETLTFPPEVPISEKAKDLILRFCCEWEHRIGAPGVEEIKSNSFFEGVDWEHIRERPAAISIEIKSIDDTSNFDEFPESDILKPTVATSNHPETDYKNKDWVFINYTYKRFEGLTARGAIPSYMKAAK
T6 sequence (P19525 whole entry): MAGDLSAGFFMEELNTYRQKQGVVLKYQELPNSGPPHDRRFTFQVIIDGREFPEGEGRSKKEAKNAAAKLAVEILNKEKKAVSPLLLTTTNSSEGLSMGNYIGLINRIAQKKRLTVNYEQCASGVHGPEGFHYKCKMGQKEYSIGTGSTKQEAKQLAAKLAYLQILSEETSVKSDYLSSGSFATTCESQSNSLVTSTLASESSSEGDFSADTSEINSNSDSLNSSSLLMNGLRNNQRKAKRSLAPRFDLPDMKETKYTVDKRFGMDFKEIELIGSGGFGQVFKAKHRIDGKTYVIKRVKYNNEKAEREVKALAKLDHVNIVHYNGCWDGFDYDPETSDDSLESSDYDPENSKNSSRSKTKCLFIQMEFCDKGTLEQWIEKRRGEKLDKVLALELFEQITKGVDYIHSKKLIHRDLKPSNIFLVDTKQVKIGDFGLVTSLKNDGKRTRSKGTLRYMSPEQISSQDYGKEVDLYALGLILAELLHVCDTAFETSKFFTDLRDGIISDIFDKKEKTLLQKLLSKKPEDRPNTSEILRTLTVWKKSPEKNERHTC
T8 sequence (O00311 whole entry): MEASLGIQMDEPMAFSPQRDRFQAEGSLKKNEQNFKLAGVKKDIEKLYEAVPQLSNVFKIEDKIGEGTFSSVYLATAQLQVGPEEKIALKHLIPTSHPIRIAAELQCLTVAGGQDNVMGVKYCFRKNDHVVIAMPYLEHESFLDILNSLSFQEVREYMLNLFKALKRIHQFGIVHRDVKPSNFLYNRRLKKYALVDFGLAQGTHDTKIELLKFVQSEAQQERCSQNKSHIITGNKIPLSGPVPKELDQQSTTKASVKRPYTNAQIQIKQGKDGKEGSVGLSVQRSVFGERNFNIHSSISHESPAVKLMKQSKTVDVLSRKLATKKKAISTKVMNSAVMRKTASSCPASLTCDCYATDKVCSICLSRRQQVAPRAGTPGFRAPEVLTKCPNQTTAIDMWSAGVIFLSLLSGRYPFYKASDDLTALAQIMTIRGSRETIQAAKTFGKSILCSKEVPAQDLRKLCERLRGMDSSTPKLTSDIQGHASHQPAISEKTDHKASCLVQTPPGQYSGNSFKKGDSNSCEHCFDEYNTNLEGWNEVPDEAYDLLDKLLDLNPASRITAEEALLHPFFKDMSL
T8 sequence (Q9UBU7 whole entry partner): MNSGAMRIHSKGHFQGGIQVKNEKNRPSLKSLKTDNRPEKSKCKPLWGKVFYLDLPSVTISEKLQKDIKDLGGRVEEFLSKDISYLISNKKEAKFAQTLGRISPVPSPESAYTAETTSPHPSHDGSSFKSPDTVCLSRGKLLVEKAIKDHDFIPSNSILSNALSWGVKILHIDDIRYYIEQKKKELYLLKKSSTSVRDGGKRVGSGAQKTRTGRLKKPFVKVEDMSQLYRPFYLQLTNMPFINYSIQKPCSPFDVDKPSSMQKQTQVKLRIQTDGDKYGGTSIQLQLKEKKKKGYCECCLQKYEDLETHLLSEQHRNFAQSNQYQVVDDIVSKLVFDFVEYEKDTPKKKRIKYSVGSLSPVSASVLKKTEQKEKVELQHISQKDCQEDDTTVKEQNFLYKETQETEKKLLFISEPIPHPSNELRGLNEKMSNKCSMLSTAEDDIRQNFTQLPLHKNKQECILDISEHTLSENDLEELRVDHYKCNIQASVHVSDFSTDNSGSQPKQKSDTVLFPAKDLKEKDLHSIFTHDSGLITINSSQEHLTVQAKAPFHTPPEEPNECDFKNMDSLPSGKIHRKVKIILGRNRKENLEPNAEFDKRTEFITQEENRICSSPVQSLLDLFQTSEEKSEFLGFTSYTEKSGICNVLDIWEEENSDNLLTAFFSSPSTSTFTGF
T5 sequence (Q00534 whole entry): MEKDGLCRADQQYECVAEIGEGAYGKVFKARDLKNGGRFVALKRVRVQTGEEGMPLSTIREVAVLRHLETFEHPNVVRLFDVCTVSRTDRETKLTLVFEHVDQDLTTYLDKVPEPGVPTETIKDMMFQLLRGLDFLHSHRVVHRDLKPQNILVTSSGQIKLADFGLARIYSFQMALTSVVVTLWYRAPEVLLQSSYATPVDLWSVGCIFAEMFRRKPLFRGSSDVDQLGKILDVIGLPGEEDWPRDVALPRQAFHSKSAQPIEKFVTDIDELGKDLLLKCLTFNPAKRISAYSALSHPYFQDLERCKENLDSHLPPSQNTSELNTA
T5 sequence (P30281 whole entry partner): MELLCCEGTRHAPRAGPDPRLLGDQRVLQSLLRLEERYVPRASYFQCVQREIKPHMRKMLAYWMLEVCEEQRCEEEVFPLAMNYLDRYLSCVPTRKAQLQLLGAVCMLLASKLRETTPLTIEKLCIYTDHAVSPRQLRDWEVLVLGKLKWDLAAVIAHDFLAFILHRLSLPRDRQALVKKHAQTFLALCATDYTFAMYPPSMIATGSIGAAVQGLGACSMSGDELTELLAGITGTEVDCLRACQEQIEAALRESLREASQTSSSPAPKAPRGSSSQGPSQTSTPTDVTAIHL
T3 sequence (Q96KB5 whole entry): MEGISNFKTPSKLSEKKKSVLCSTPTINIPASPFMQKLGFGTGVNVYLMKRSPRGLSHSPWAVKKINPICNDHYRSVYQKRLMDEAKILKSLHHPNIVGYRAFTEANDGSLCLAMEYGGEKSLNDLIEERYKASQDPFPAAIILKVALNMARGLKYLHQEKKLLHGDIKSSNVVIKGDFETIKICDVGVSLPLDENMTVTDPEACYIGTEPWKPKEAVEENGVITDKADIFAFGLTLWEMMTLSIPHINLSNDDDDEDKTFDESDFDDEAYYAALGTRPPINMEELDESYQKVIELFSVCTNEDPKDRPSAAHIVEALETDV

Consider `CC[C@H](Nc1nc(NCc2cnc(C)cc2C)c2ncn(C(C)C)c2n1)[C@@H](C)O` [Fadraciclib, 2-pentanol, 3-[[6-[[(4,6-dimethyl-3-pyridinyl)methyl]amino]-9-(1-methylethyl)-9Hpurin-2-yl]amino]-, (2R,3S)], for which the “apoptosis (non-viable cells)” value is given as “no appreciable increase in apoptosis” with HEL and “approximately 50%” in the data set with KG-1. Moreover, the “cells induced into apoptosis (dead cells)” value with Kasumi-1 cells is “up to 80%”. In addition, the inhibition at 1 µM on AKT3 is 2.4 ± 0.3%; on HIPK2, 2.5 ± 0.1%; at PBK it was -0.9%; on NDR1, 2 ± 0.1%; at CDK6, 27 ± 0.9%; at PKR, 1.1%. The inhibition at 1 µM is -9.7 ± 0.1% on MARK1; -5.7% at CDC7; -11.4 ± 0.2% on PDGFRa[T674I]; 0.9% on DYRK3; 1.6 ± 0.1% on IRAK1; 12.4 ± 0.5% at PKD1. Moreover, in the data set on panel of 256 kinases, the “number of kinases inhibited >50%” value is on record as 9.

(Values after PMC7347136 (PLoS ONE, 2020).)
